From patent US20110305784A1, “Fractionated products obtained from gamboge resin, and medical uses of the same” (priority 2010, published 2011)
Converted amounts (≈) assume the structure as drawn. Marks after values point to notes of the source that are not given here.

Key:
[1] = tested on: Human promyelocytic leukemia cell HL-60; assay: cells; conditions: for IC50: HL-60, read-out: IC50 (50% inhibition concentration); for CC50: HL-60, read-out: LC50 (50% lethal concentration)
Excerpt: (§1) The in vitro anti-cancer test was primarily used to detect the effect of a candidate drug on cancer cell proliferation. The working principle involved therein is the ability of viable cells to shift alamarBlue (AbD Serotec, UK) from its originally non-fluorescent oxidized state (non-fluorescent, blue) to a reduced form (fluorescent, red) having fluorescence via metabolic reaction. According to the fluorescent data result generated by the alamarBlue reagent thus obtained, the proliferation of the viable cells and cell activity can be quantified for detection.
(§2) In the in vitro anti-cancer tests, a candidate drug was tested at 5 different concentrations of 0.01, 0.1, 1, 10, and 100 μg/ml, and six human cancer cell lines and a normal human cell line were used (see Table 10).

[2] = tested on: Human histocytic lymphoma cell U937; assay: cells; conditions: for IC50: U-937, read-out: IC50 (50% inhibition concentration); for CC50: U-937, read-out: LC50 (50% lethal concentration)
Excerpt: as §1, §2

[3] = tested on: Human hepatocellular carcinoma cell HepG2; assay: cells; conditions: for IC50: HepG2, read-out: IC50 (50% inhibition concentration); for CC50: HepG2, read-out: LC50 (50% lethal concentration)
Excerpt: as §1, §2

[4] = tested on: Human umbilical venal epithelial cell (HUVEC); assay: cells; conditions: Homo sapiens, HUVEC, read-out: IC50 (50% inhibition concentration)
Excerpt: as §1, §2

[5] = tested on: Human colon adenocarcinoma cell HT-29; assay: cells; conditions: for IC50: HT-29, read-out: IC50 (50% inhibition concentration); for CC50: HT-29, read-out: LC50 (50% lethal concentration)
Excerpt: as §1, §2

[6] = tested on: Human lung carcinoma cell A549; assay: cells; conditions: for IC50: A549, read-out: IC50 (50% inhibition concentration); for CC50: A549, read-out: LC50 (50% lethal concentration)
Excerpt: as §1, §2

[7] = in vitro; conditions: human
Excerpt: as §1, §2

[8] = tested on: Human breast adenocarcinoma cell MCF7; assay: cells; conditions: for IC50: MCF7, read-out: IC50 (50% inhibition concentration); for CC50: MCF7, read-out: LC50 (50% lethal concentration)
Excerpt: as §1, §2

[9] = tested on: male CD-1 (Crl.) mice; assay: In vivo analgesia test of the fractionated products TSB-14A to TSB-14E (formalin, hind paw licking); design: concentration or dose not given beside the values; conditions: morphine positive control, oral
[10] = tested on: male CD-1 (Crl.) mice; assay: In vivo analgesia test of formulation TSB-9-W (formalin, hind paw licking); conditions: morphine oral 30 mg/Kg
Method: The formulation TSB-9 was milled to obtain a formulation TSB-9-W having a particle size of around 10 μm, and an in vivo analgesia test of the formulation TSB-9-W was performed by the MDS Pharma Services.
Briefly, male CD-1 (Crl.) mice were randomly divided into three groups (n=5 for each group) including an experimental group (i.e., TSB-9-W group) and two control groups (i.e., a vehicle normal control group and a morphine positive control group). The mice in the TSB-9-W group were orally administered with the formulation TSB-9-W at a dose of 100 mg/Kg, the mice in the vehicle normal control group were orally administered with 2% Tween 80 at a dosing volume of 10 mL/Kg, and the mice in the morphine positive control group were orally administered with morphine at a dose of 30 mg/Kg. One hour later, 0.02 mL of a 2% formalin solution was subplantarly injected into the hind paws of mice in each group, and the hind paw licking times for each mouse were counted at the time intervals of 0-5 minutes and 15-30 minutes after formalin injection. Inhibition rate (%) of hind paw licking in each group of mice was calculated using the following Equation (1):
wherein A=inhibition rate of hind paw licking (%), • B=the average value of the hind paw licking times in the vehicle normal control group of mice, and • C=the average value of the hind paw licking times in each group of mice.

[11] = tested on: male Wistar rats; assay: In vivo anti-inflammation test of formulation TSB-9-W1 (carrageenan hind paw edema); conditions: aspirin oral 150 mg/Kg, three hours after carrageenan injection
Method: Briefly, male Wistar rats with a weight of around 160±5 g were randomly divided into four groups (n=5 for each group) including two experimental groups ([…]1-1 group and TSB-9-W1-2 group) and two control groups (i.e., a vehicle normal control group and an aspirin positive control group). […] Three hours after the intraplantar injection, the volumes of the left and right hind paws of each rat were measured using a plethysmometer (#7150, UGO Basile, Italy) including a water cell (a diameter of 25 mm; #7157, UGO Basile, Italy), and the hind paw edema volume was expressed as the difference between the measured volumes of the left and right hind paws. […] D=(E-F)/E×100 (2) wherein D=inhibition rate of hind paw edema, • E=the average value of the hind paw edema volumes in the vehicle normal control group of rats, and • F=the average value of the hind paw edema volumes in each group of rats.

[12] = tested on: male Wistar rats; assay: In vivo anti-inflammation test of the fractionated products TSB-14A to TSB-14E (carrageenan hind paw edema); conditions: aspirin positive control, oral, three hours after carrageenan injection
Method: Briefly, male Wistar rats with a weight of around 160±5 g were randomly divided into four groups (n=5 for each group) including two experimental groups (i.e., TSB-9-W1-1 group and TSB-9-W1-2 group) and two control groups (i.e., a vehicle normal control group and an aspirin positive control group). After overnight fasting, the rats in the TSB-9-W1-1 and the TSB-9-W1-2 groups were orally administered with the formulation TSB-9-W1 at a dose of 10 mg/Kg and a dose of 30 mg/Kg, respectively, the rats in the vehicle normal control group were orally administered with 2% Tween 80 at a dosing volume of 10 mL/Kg, and the rats in the aspirin positive control group were orally administered with aspirin at a dose of 150 mg/Kg. One hour later, 0.1 mL of a 1% carrageenan suspension was intraplantarly injected into the right hind paws of rats in each group. Three hours after the intraplantar injection, the volumes of the left and right hind paws of each rat were measured using a plethysmometer (#7150, UGO Basile, Italy) including a water cell (a diameter of 25 mm; #7157, UGO Basile, Italy), and the hind paw edema volume was expressed as the difference between the measured volumes of the left and right hind paws. Inhibition rate (%) of hind paw edema in each group of rats was calculated using the following Equation (2): […]

[13] = 0-5 minutes after formalin injection

| Structure (SMILES) | IC50 [1] [µg/mL] | CC50 [1] [µg/mL] | IC50 [2] [µg/mL] | CC50 [2] [µg/mL] | IC50 [3] [µg/mL] | CC50 [3] [µg/mL] | IC50 [4] [µg/mL] | IC50 [5] [µg/mL] | CC50 [5] [µg/mL] | IC50 [6] [µg/mL] | CC50 [6] [µg/mL] | CC50 [7] [µg/mL] | IC50 [8] [µg/mL] | CC50 [8] [µg/mL] | other results |
| --- | --- | --- | --- | --- | --- | --- | --- | --- | --- | --- | --- | --- | --- | --- | --- |
| CC(C)=CCc1c2c(c(O)c3c1O[C@]14C(=C[C@@H]5CC1C(C)(C)OC4(C/C=C(\C)C(=O)O)C5=O)C3=O)C=CC(C)(C/C=C\C(C)(C)O)O2 (some centres unmarked) [Gh-3332, isoformoxanthone I] | 11.8 (≈ 18.3 µM) | 30.5 (≈ 47.3 µM) | 0.23 (≈ 0.357 µM) | 1.4 (≈ 2.17 µM) | 6.7 (≈ 10.4 µM) | 19.6 (≈ 30.4 µM) | 0.11 (≈ 0.171 µM) | 0.85 (≈ 1.32 µM) | 73.8 (≈ 114 µM) | 1.3 (≈ 2.02 µM) | 4.6 (≈ 7.13 µM) | 3.3 (≈ 5.12 µM) | 0.87 (≈ 1.35 µM) | 3.3 (≈ 5.12 µM) | – |
| CN1CC[C@]23c4c5ccc(O)c4O[C@H]2[C@@H](O)C=C[C@H]3[C@H]1C5 [Morphine, morphine] | – | – | – | – | – | – | – | – | – | – | – | – | – | – | Inhibition rate of hind paw licking (%) [9, 13]: 62* %; Inhibition rate of hind paw licking (%) ([9]; 10-15 minutes after formalin injection): 89* %; Inhibition rate of hind paw licking (%) ([9]; 15-20 minutes after formalin injection): 81* %; Inhibition rate of hind paw licking (%) ([9]; 20-25 minutes after formalin injection): 68* %; Inhibition rate of hind paw licking (%) ([9]; 25-30 minutes after formalin injection): 0%; Inhibition rate of hind paw licking (%) [10, 13]: 100* %; Inhibition rate of hind paw licking (%) ([10]; 15-30 minutes after formalin injection): 100* % |
| CC(C)=CCC[C@@]1(C)C=Cc2c(O)c3c(c(C(O)C4OC4(C)C)c2O1)O[C@]12C(=C[C@@H]4CC1C(C)(C)OC2(C/C=C(/C)C(=O)O)C4=O)C3=O (some centres unmarked) [Gh-3311, epiformoxanthone G] | 1.4 (≈ 2.12 µM) | 2.2 (≈ 3.33 µM) | 1.9 (≈ 2.88 µM) | 5.4 (≈ 8.17 µM) | 7.9 (≈ 12 µM) | 25.6 (≈ 38.7 µM) | 4 (≈ 6.05 µM) | 7.9 (≈ 12 µM) | 38 (≈ 57.5 µM) | 5 (≈ 7.57 µM) | 21.2 (≈ 32.1 µM) | 13.9 (≈ 21 µM) | 8 (≈ 12.1 µM) | 14 (≈ 21.2 µM) | – |
| CC(=O)Oc1ccccc1C(=O)O [Aspirin, aspirin] | – | – | – | – | – | – | – | – | – | – | – | – | – | – | Inhibition rate of hind paw edema (%) [11]: 40* %; Inhibition rate of hind paw edema (%) [12]: 37* % |
| CC(C)=CCC[C@@]1(C)C=Cc2c(O)c3c(c(CC4OC4(C)C)c2O1)O[C@]12C(=C[C@@H]4CC1C(C)(C)OC2(C/C=C(/C)C(=O)O)C4=O)C3=O (some centres unmarked) [Gh-3351, epiformoxanthone E] | 11.7 (≈ 18.1 µM) | 22.1 (≈ 34.3 µM) | 0.24 (≈ 0.372 µM) | 0.62 (≈ 0.962 µM) | 2.9 (≈ 4.5 µM) | 31.2 (≈ 48.4 µM) | 0.11 (≈ 0.171 µM) | 1.9 (≈ 2.95 µM) | 72.6 (≈ 113 µM) | 0.77 (≈ 1.19 µM) | 3.4 (≈ 5.27 µM) | 3.3 (≈ 5.12 µM) | 0.99 (≈ 1.54 µM) | 3.8 (≈ 5.89 µM) | – |
| C=C(C)C(O)CC[C@]1(C)C=Cc2c(O)c3c(c(CC=C(C)C)c2O1)O[C@]12C(=C[C@@H]4CC1C(C)(C)OC2(C/C=C(/C)C(=O)O)C4=O)C3=O (some centres unmarked) [Gh-3291, formoxanthone D] | 4.5 (≈ 6.98 µM) | 30 (≈ 46.5 µM) | 0.22 (≈ 0.341 µM) | 0.61 (≈ 0.946 µM) | 0.65 (≈ 1.01 µM) | 8.7 (≈ 13.5 µM) | 0.34 (≈ 0.527 µM) | 0.081 (≈ 0.126 µM) | 4.7 (≈ 7.29 µM) | 0.62 (≈ 0.962 µM) | 3.3 (≈ 5.12 µM) | 1.4 (≈ 2.17 µM) | 0.45 (≈ 0.698 µM) | 2.8 (≈ 4.34 µM) | – |
| CC(C)=CCC[C@]1(C)C=Cc2c(O)c3c(c(CC4OC4(C)C)c2O1)O[C@]12C(=C[C@@H]4CC1C(C)(C)OC2(C/C=C(/C)C(=O)O)C4=O)C3=O (some centres unmarked) [Gh-3352, formoxanthone E] | 0.26 (≈ 0.403 µM) | 0.93 (≈ 1.44 µM) | 0.11 (≈ 0.171 µM) | 0.26 (≈ 0.403 µM) | 0.16 (≈ 0.248 µM) | 2 (≈ 3.1 µM) | 0.084 (≈ 0.13 µM) | 0.18 (≈ 0.279 µM) | 0.68 (≈ 1.05 µM) | 0.18 (≈ 0.279 µM) | 0.99 (≈ 1.54 µM) | 0.85 (≈ 1.32 µM) | 0.075 (≈ 0.116 µM) | 1.8 (≈ 2.79 µM) | – |
| CC(C)=CCC[C@]1(C)C=Cc2c(O)c3c(c(C(O)C4OC4(C)C)c2O1)O[C@]12C(=C[C@@H]4CC1C(C)(C)OC2(C/C=C(/C)C(=O)O)C4=O)C3=O (some centres unmarked) [Gh-3353, formoxanthone G] | 1.3 (≈ 1.97 µM) | 2.4 (≈ 3.63 µM) | 4.8 (≈ 7.26 µM) | 14.6 (≈ 22.1 µM) | 5.3 (≈ 8.02 µM) | 35.5 (≈ 53.7 µM) | 5.5 (≈ 8.32 µM) | 5 (≈ 7.57 µM) | 20.8 (≈ 31.5 µM) | 2.6 (≈ 3.93 µM) | 8.2 (≈ 12.4 µM) | 8.4 (≈ 12.7 µM) | 2.4 (≈ 3.63 µM) | 9.6 (≈ 14.5 µM) | – |
| CC(C)=CCc1c2c(c(O)c3c1O[C@]14C(=C[C@@H]5CC1C(C)(C)OC4(C/C=C(/C)C(=O)O)C5=O)C3=O)C=C[C@@](C)(C/C=C/C(C)(C)O)O2 [Gh-3272, formoxanthone H] | 1.7 (≈ 2.64 µM) | 5.1 (≈ 7.91 µM) | 0.16 (≈ 0.248 µM) | 0.43 (≈ 0.667 µM) | 1.2 (≈ 1.86 µM) | 3.7 (≈ 5.74 µM) | 0.12 (≈ 0.186 µM) | 0.36 (≈ 0.558 µM) | 6.6 (≈ 10.2 µM) | 1.7 (≈ 2.64 µM) | 4.7 (≈ 7.29 µM) | 2.5 (≈ 3.88 µM) | 0.73 (≈ 1.13 µM) | 2.8 (≈ 4.34 µM) | – |
